# Results from patent US20220290200A1, “GENETICALLY MODIFIED HOST CELLS PRODUCING GLYCOSYLATED CANNABINOIDS” (OCTARINE BIO IVS, priority 2019, published 2022).
# B1: Pt78G: glycosyl transferase, SEQ ID NO: 165, 166 (protein)
# chain: MSEARNDLKHIAVLAFPVATHGPPLLSLVRRLSASASYAKFSFFSTKESNSKLFSKEDGLENIKPYNVSDGLPENYNFAGNLDEVMNYFFKATPGNFKQAMEVAVKEVGKDFTCIMSDAFLWFAADFAQELHVPWVPLWTSSSRSLLLVLETDLVHQKMRSIINEPEDRTIDILPGFSELRGSDIPKELFHDVKESQFAAMLCKIGLALPQAAVVASNSFEELDPDAVILFKSRLPKFLNIGPFVLTSPDPFMSDPHGCLEWLDKQKQESVVYISFGSVISLPPQELAELVEALKECKLPFLWSFRGNPKEELPEEFLERTKEKGKVVSWTPQLKVLRHKAIGVFVTHSGWNSVLDSIAGCVPMICRPFFGDQTVNTRTIEAVWGTGLEIEGGRITKGGLMKALRLIMSTDEGNKMRKKLQHLQGLALDAVQSSGSSTKNFETLLEVVAK
# B2: Cp7.38: glycosyl transferase, SEQ ID NO: 191, 192 (protein)
# chain: MGSEVLHHDYSQLNIFFFPFMAHGHMIPTLDMAKLFATHGAKTSIITTPLNLPFFSKSIERFSKQTGLEIGVKLLNFPSVEVGLPSGCENADSLPAGEPLIVNKFFAAAGMLKDPLERLLQEFKPDCLIADMFFPWTTDAAAKFDIPRLVFHGTSFFALSASECIRLYTPFNNVSSDSEPFLVPTLPDEIRLTRNQLADFAMKEGDENGIHRLIKEAKESELKSYGVVVNSFYELEPAYADHYRNFLKRKAWHIGPVSLCNKTVEDKAERGKRASIDEDECLKWLNSKAPNSVIYICFGSMANFNSAQLMEIATALDASGQEFIWVVRREKNENNQEDWLPEGFEQRTEGKGLIIRGWAPQVLILEHEAVGGFVTHCGWNSTLEGVTAGMPMVTWPVSAEQFYNEKLVTEVLKIGLSVGVKKWVRSEGDFVSREKVEQAVREIMVGSEAVERRMRAKAMADMARAAVEKGGSSYNDLNALLREVSLMRRQQSQNQ
# Test: In vitro glycosyl transferase performance, purified enzymes, % conversion of cannabinoids to cannabinoid glycosides
# Assay type: biochemical
# Details: for Conversion % (11-nor-9-carboxy-THC-glycoside produced): substrate 11-nor-9-carboxy-THC, enzyme PL-113(Tc90A_GA); for Conversion % (CBD to the glycoside): acceptor CBD; for Conversion % (THC-glycoside produced): substrate THC; for Conversion % (CBDV to the glycoside): acceptor CBDV; for Conversion % (CBG to the glycoside): acceptor CBG
# Description: For in vitro studies of glycosyl transferase performance in glycosylating cannabinoids, purified Glycosyl transferases were prepared as follows:
# 5 mL of 2× concentrated LB medium+Ampicillin (50 μg/m L) was inoculated with E. coli XJb (DE3) strains expressing a glycosyl transferase of interest and incubated overnight at 30° C. with shaking. The following day, cell cultures were transferred into 500 mL of 2× concentrated LB medium+Ampicillin (50 μg/mL) and incubated overnight at 30° C. with shaking. The following day, the cell cultures were transferred to 1 L of 2× concentrated LB medium+Ampicillin (50 μg/mL)+3 mM arabinose+0.1 mM IPTG. Cells were incubated for 24 h at 20° C. with shaking. The following day, the cells were collected by centrifugation at 46500×g for 10 mins at 4° C. Cells were resuspended in 20 mL ice-cold GT buffer (50 mM Tris-HCl pH7.4+1 mM phenylmethanesulfonyl fluoride+1 cOmplete™, mini, EDTA-free Protease Inhibitor Cocktail tablet (Roche)). The resuspended material was transferred to a 50 mL falcon tube and kept at −80° C. for at least 15 mins. Falcon tubes were then thawed at room temperature, as the tubes were thawing the following reagents were added; 2.6 mM MgCl2, 1 mM CaCl2, 250 μL of a 1.4 mg/ml DNase solution (Sigma) dissolved in MilliQ water. Tubes were gently inverted to mix then were incubated for 5 mins at 37° C. Binding buffer was then added to the tubes (50 mM Tris-HCl pH7.4, 10 mM imidazole, 500 mM NaCl. 11.25 mL MilliQ water) and the pH adjusted to 7.4 with HCl. The mix was centrifuged at 15550×g for 15 mins at 4° C., the supernatant transferred to a fresh 50 mL falcon tubes and centrifuged again to remove any remaining cellular debris at 48400×g for 20 minutes at 4° C. While the enzyme prep was centrifuging, 3 mL of HIS-Select (available from Sigma P6611) column material was added to a fresh 50 mL tube and washed by adding MilliQ water up to 50 mL, centrifuging at 2000×g for 2 mins and discarding the supernatant. This washing step was repeated. Finally, MilliQ water was added to the HIS-Select material to an approximate 50% volume. Collected supernatant from the centrifuged enzyme preparation was transferred to the tube containing the HIS-Select material through a Miracloth (available from Merck Millipore), and then incubated at 4° C. with gently shaking by inversion for 2 h. After 2 h the mix was centrifuged at 2000×g for 4 minutes at 4° C. and the supernatant discarded. The remaining HIS-Select material was washed twice with 1× binding buffer (50 mM Tris-HCl, 0.5M NaCl, 10 mM Imidazole, pH 7.4) with centrifugation at 2000×g for 4 minutes at 4° C. The HIS-Select material was resuspended in 5 mL 1× binding buffer and transferred to a Poly-Prep®Chromatography Column (available from BioRad, 7311550). The HIS-Select material was kept at 4° C. and washed twice with 1× binding buffer by filling up the column and allowing it to drip through. Finally, purified Glycosyl transferases were eluted from the HIS-Select material by adding 7.5 mL of elution buffer (50 mM Tris-HCl, 500 mM Imidazole, pH7.4) and collecting the flow through. Enzymes were used immediately in in vitro enzyme assays or stored at −20° C. in 50% glycerol until needed.
# In vitro conversion of various cannabinoids to cannabinoid glycosides was carried out according to table 21. Alkaline phosphatase was provided by New England Biolabs (M0371S). Cannabinoids were dissolved in methanol. The UDP-sugar (e.g. UDP-glucose) was provided by a commercial supplier (e.g. Sigma) or produced by in vitro enzymatic conversion from a commercially available UDP-sugar as shown in Example 21.
# The reaction mixture was scaled up or down as required. The reaction mixture was incubated without shaking at 30° C. for 24 hours. Extraction and analysis were performed as described above for this example. […]
# [1] = UDP-Xylose, enzyme PL-214(Cs73Y_GA)
# [2] = UDP-Glucose, enzyme PL-214(Cs73Y_GA)
molecule,measurement,setting,value
11-nor-9-carboxy-THC-1′-O-β-D-di-glucoside [OB42],Conversion % (11-nor-9-carboxy-THC-glycoside produced),sugar donor UDP-Glucose,3.4%
"C=C(C)C1CCC(C)=CC1c1c(O)cc(CCCCC)cc1O[C@@H]1O[C@H](CO)[C@@H](O)[C@H](O[C@@H]2O[C@H](CO)[C@@H](O)[C@H](O)[C@H]2O)[C@H]1O (stereo partly drawn) [OB2, CBD-1′-O-β-D-laminaribioside]",Conversion % (CBD to the glycoside),"UDP-Glucose, enzymes PL-159(Pt88G_GA) + PL-55(Sr76G1_GA)",80.7%
C=C(C)C1CCC(C)=CC1c1c(O)cc(CCCCC)cc1OC1OC(COC2OC(CO)C(O)C(O)C2O)C(O)C(O)C1O (stereo not shown) [OB3],Conversion % (CBD to the glycoside),"UDP-Glucose, enzymes PL-159(Pt88G_GA) + PL-152(Si94D_GA)",96.4%
"C=C(C)C1CCC(C)=CC1c1c(O)cc(CCCCC)cc1O[C@@H]1OC[C@@H](O)[C@H](O)[C@H]1O (stereo partly drawn) [OB9, CBD-1′-O-β-D-xyloside]",Conversion % (CBD to the glycoside),"UDP-Xylose, enzyme PL-159(Pt88G_GA)",12.4%
C=C(C)C1CCC(C)=CC1c1c(O)cc(CCCCC)cc1OC1OC(C(=O)O)C(O)C(O)C1O (stereo not shown) [OB14],Conversion % (CBD to the glycoside),"UDP-Glucuronic Acid, enzyme PL-214(Cs73Y_GA)",2.0%
C=C(C)C1CCC(C)=CC1c1c(O)cc(CCCCC)cc1OC1OC(CO)C(O)C(O)C1O (stereo not shown) [OB16],Conversion % (CBD to the glycoside),"UDP-Galactose, enzyme PL-214(Cs73Y_GA)",62%
"CCCCCc1cc(O[C@@H]2O[C@H](CO)[C@@H](O)[C@H](O)[C@H]2O)c2c(c1)OC(C)(C)[C@@H]1CCC(C)=C[C@@H]21 [OB20, THC-1′-O-β-D-glucoside]",Conversion % (THC-glycoside produced),"sugar donor UDP-Glucose, enzyme PL-182(Ha88B_2_GA)",74.9%
CCCCCc1cc(OC2OCC(O)C(O)C2O)c2c(c1)OC(C)(C)C1CCC(C)=CC21 (stereo not shown) [OB21],Conversion % (THC-glycoside produced),"sugar donor UDP-Xylose, enzyme PL-214(Cs73Y_GA)",19.5%
"C=C(C)[C@@H]1CCC(C)=C[C@H]1c1c(O)cc(CCC)cc1O[C@@H]1O[C@H](CO)[C@@H](O)[C@H](O)[C@H]1O [OB24, CBDV-1′-O-β-D-glucoside]",Conversion % (CBDV to the glycoside),"UDP-Glucose, enzyme PL-326(Ha72B_GA)",92.6%
"C=C(C)[C@@H]1CCC(C)=C[C@H]1c1c(O[C@@H]2O[C@H](CO)[C@@H](O)[C@H](O)[C@H]2O)cc(CCC)cc1O[C@@H]1O[C@H](CO)[C@@H](O)[C@H](O)[C@H]1O [OB25, CBDV-1′-O-β-O-glucosyl-3′-O-β-D-glucoside]",Conversion % (CBDV to the glycoside),"UDP-Glucose, enzyme PL-342(Cp73B_GA)",4.5%
C=C(C)C1CCC(C)=CC1c1c(O)cc(CCC)cc1OC1OCC(O)C(O)C1O (stereo not shown) [OB29],Conversion % (CBDV to the glycoside),[1],12.1%
"C=C(C)C1CCC(C)=CC1c1c(OC2OC(CO)C(O)C(O)C2O)cc(CCCCC)c(C(=O)O)c1O [OB31, CBDA-1′-O-β-D-glucoside]",Conversion % (CBDA to the glycoside),"acceptor CBDA, UDP-Glucose, enzyme PL-214(Cs73Y_GA)",92%
"CCCCCc1cc(O)c(C/C=C(\C)CCC=C(C)C)c(O[C@@H]2O[C@H](CO)[C@@H](O)[C@H](O)[C@H]2O)c1 [OB32, CBG-1′-O-β-D-glucoside]",Conversion % (CBG to the glycoside),"UDP-Glucose, enzyme PL-340(Qs72S_1_GA)",98.9%
"CCCCCc1cc(O[C@@H]2O[C@H](CO)[C@@H](O)[C@H](O)[C@H]2O)c(C/C=C(\C)CCC=C(C)C)c(O[C@@H]2O[C@H](CO)[C@@H](O)[C@H](O)[C@H]2O)c1 [OB33, CBG-1′-O-β-D-glucosyl-3′-O-β-D-glucoside]",Conversion % (CBG to the glycoside),"UDP-Glucose, enzyme PL-5(At73C5_GA)",4.5%
CCCCCc1cc(O)c(C/C=C(\C)CCC=C(C)C)c(O[C@@H]2OC[C@@H](O)[C@H](O)[C@H]2O)c1 [OB36],Conversion % (CBG to the glycoside),[1],1.0%
"CCCCCc1cc(O[C@@H]2O[C@H](CO)[C@@H](O)[C@H](O)[C@H]2O)c2c(c1)OC(C)(C)[C@@H]1CCC(C(=O)O)=C[C@@H]21 [OB41, 11-nor-9-carboxy-THC-1′-O-β-D-glucoside]",Conversion % (11-nor-9-carboxy-THC-glycoside produced),sugar donor UDP-Glucose,70.2%
CBD-1′-O-β-D-glucosyl-3′-O-β-D-di-glucoside [OB8],Conversion % (CBD to the glycoside),[2],12.3%
CBD-1′-O-β-D-tri-glucoside [OB7],Conversion % (CBD to the glycoside),[2],27.3%
CBG-1′-O-β-D-tetra-xyloside [OB40],Conversion % (CBG to the glycoside),[1],1.2%
CBN-1′-O-β-D-di-glucoside [OB23],Conversion % (CBN-glycoside produced),"substrate CBN, sugar donor UDP-Glucose, enzyme PL-342(Cp73B_GA)",100%
B1,conversion of cannabinoid aglycone to cannabinoid glycoside in 24 h,CBG to CBG-1′-O-β-D-glucosyl-3′-O-β-D-glucoside (OB33),100%
B2,conversion of cannabinoid aglycone to cannabinoid glycoside in 24 h,CBN to CBN-1′-O-β-D-di-glucoside (OB23),100%
